According to US20100273701A1, “USE OF SALUSIN BETA ALONE OR IN COMBINATION WITH OCTREOTIDE AS A THERAPEUTIC AGENT” (priority 2007, published 2010):

System: drug-resistant Mycobacterium tuberculosis
Settings: 10 micrograms per ml; seven days; strain resistant to PAS, streptomycin and isoniazid

| Compound | inhibition of the growth of Mycobacterium tuberculosis [%] |
| --- | --- |
| Ala-lle-Phe-Ile-Phe-Ile-Arg-Trp-Leu-Leu-Lys-Leu-Gly-His-His-Gly-Arg-Ala-Pro-Pro-OH [Peptide 1] | 100 |
| C[C@@H](O)[C@@H]1NC(=O)[C@H](CCCCN)NC(=O)[C@@H](Cc2c[nH]c3ccccc23)NC(=O)[C@H](Cc2ccccc2)NC(=O)[C@@H](NC(=O)[C@H](N)Cc2ccccc2)CSSC[C@@H](C(=O)N[C@H](CO)[C@@H](C)O)NC1=O [Peptide 2, D-Phe-Cys-Phe-D-Trp-Lys-Thr-Cys-L-threoninol] | 100 |
